{"source": "ChEMBL document CHEMBL5725708", "about": "“Amide derivatives and pharmaceutically acceptable salts thereof, preparation method thereof and medicinal application thereof” (2018)", "target": "T1, Prostaglandin E synthase (Homo sapiens, UniProt O14684)", "T1 sequence (O14684 whole entry)": "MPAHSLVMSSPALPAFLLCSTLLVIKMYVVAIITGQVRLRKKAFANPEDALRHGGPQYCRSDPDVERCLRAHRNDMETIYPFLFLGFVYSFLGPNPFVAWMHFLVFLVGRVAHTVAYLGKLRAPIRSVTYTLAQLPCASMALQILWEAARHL", "assay": "mPGES1 enzyme assay: mPGES1 was diluted with assay buffer and added into plate at 49 μL/well supplemented with 1 μL of compound (the final concentration of each compound at seven gradient concentrations was 10000 nM, 1000 nM, 100 nM, 10 nM, 1 nM, 0.1 nM and 0.01 nM). Each well was added with 3.8 μL of 20 μg/mL PGH precooled on ice after shaking for 30 seconds and incubated for 7 minutes on ice. Then, each well was added with 53.8 μL of 6 mg/mL SnCl2 to quench the reaction. The sample was diluted with dilute buffer at 1:400. 10 μl of diluted sample, 5 μL PGE2-d2 and 5 μL anti-PGE2 Cryptate were added to a black 384-well plate, and incubated at 4° C. overnight. HTRF was determined using Flexstation, and the IC50 of the compounds was obtained by data processing software."}
{"molecule": "CCn1c(-c2ccc(F)cc2)cc2cc(NC(=O)c3cc(CNC(=O)C(C)(C)C)ccc3Br)ccc21", "values": [{"measurement": "IC50", "value": 6.02, "unit": "nM"}]}
